Consider six compounds from ChEMBL document CHEMBL1140367, “Discovery and activity of (1R,4S,6R)-N-[(1R)-2-[4-cyclohexyl-4-[[(1,1-dimethylethyl)amino]carbonyl]-1-piperidinyl]-1-[(4-fluorophenyl)methyl]-2-oxoethyl]-2-methyl-2-azabicyclo[2.2.2]octane-6-carboxamide (3, RY764), a potent and selective melanocortin subtype-4 receptor agonist” (Bioorg Med Chem Lett, 2005).

SMILES strings stand for the structures. Some results are limits rather than exact numbers.

Series [1] has as its target T1, Melanocortin receptor 3 (Homo sapiens, UniProt P41968). Description: Percentage of cAMP accumulation at 10 uM compound relative to alpha-MSH for melanocortin receptor 3. The format is functional.
Series [2] deals with T2, Melanocortin receptor 5 (Homo sapiens, UniProt P33032). Description: Inhibition concentration (binding affinity) against human melanocortin receptor 5 by displacement of [125I]NDP-alpha-MSH from the human receptors expressed in CHO cells. The series is classed as cell-based.
T2 sequence (P33032 whole entry): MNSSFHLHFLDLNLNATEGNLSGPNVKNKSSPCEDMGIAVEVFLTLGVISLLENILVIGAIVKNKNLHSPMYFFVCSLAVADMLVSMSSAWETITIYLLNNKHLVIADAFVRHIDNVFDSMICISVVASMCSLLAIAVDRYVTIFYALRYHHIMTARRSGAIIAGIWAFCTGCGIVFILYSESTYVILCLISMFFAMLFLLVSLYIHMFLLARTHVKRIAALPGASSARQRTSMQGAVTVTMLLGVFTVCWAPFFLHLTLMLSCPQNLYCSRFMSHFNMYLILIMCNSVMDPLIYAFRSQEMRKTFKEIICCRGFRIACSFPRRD
In series [3] the target is T2, Melanocortin receptor 5. The settings on record: 10 uM.
For series [4], the target named is T3, Melanocortin receptor 4 (Homo sapiens, UniProt P32245). Nature of the series: Inhibition concentration (binding affinity) against human melanocortin receptor 4 by displacement of [125I]NDP-alpha-MSH from the human receptors expressed in CHO cells. The format is cell-based.
T3 sequence (P32245 whole entry): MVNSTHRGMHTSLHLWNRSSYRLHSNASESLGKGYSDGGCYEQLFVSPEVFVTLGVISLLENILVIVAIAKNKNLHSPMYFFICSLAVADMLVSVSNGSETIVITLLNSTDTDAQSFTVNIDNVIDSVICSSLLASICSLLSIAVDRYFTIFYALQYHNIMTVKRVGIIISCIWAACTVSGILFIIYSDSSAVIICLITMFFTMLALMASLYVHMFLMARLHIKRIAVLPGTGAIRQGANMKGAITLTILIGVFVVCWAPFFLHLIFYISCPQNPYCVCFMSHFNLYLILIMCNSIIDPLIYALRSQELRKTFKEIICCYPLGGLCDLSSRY
Series [5] concerns the target T3, Melanocortin receptor 4. Nature of the series: Inhibition concentration (binding affinity) exhibited against human melanocortin receptor 4 by radio labeled ligand assay (Displacement of [125I]NDP-alpha-MSH from the human receptors expressed in CHO cells). The series is classed as functional, cell-based.
Series [6] deals with T1, Melanocortin receptor 3. Nature of the series: Inhibition concentration (binding affinity) against human melanocortin receptor 3 by displacement of [125I]NDP-alpha-MSH from the human receptors expressed in CHO cells. The series is classed as cell-based. In general terms: Loss of bound radioactivity is the signal in a displacement assay; it reports binding, not function.

Series [7] in a line: Cmax value in rhesus as a solution in water at 0.5 mg/kg, iv and 2 mg/kg po. The format is ADME, organism-based. The following applies: cercopithecidae, in vivo.
Series [8] concerns the target T4, Adrenocorticotropic hormone receptor (Homo sapiens, UniProt Q01718). The following applies: 10 uM.
Series [9] has as its target T5, Melanocortin receptor 4 (Rattus norvegicus, UniProt P70596). Description: Concentration of compound at 50% maximum cAMP accumulation in rat melanocortin receptor (rMC4R). The series is classed as functional. Background: Changes in cAMP serve as a functional read-out for many G protein-coupled receptors.
Series [10] in a line: Cmax value in beagles as a solution in water at 0.5 mg/kg, iv and 2.0 mg/kg, po. The format is ADME, organism-based, Canis lupus familiaris. The settings on record: beagle, dog, in vivo.
Series [11] is described as follows: Volume of distribution in Sprague Dawley rats as a solution in water at 1 mg/kg, iv and 20 mg/kg, po. The series is classed as ADME, organism-based. The settings on record: rat, in vivo, read-out: Vdss.
Series [12] in a line: Bioavailability in Sprague Dawley rats as a solution in water at 1 mg/kg, iv and 20 mg/kg, po. The series is classed as ADME, organism-based. The following applies: rat, in vivo.
The target of series [13] is T2, Melanocortin receptor 5. Description: Concentration of compound at 50% maximum cAMP accumulation in human melanocortin receptor (hMC5R). The series is classed as functional.
Series [14] is described as follows: […] in beagles as a solution in water at 0.5 mg/kg, iv and 2.0 mg/kg, po. The format is organism-based, Canis lupus familiaris. The settings on record: beagle, dog, in vivo.
Series [15] can be described thus: Clearance in rhesus as a solution in water at 0.5 mg/kg, iv and 2 mg/kg po. The series is classed as ADME, organism-based. The settings on record: cercopithecidae, in vivo.
In series [16] the target is T3, Melanocortin receptor 4. Nature of the series: Concentration of compound at 50% maximum cAMP accumulation in human melanocortin receptor (hMC4R). The format is functional.
For series [17], the target named is T6, Melanocortin receptor 4 (Mus musculus, UniProt P56450). Nature of the series: Inhibition concentration (binding affinity) against mouse melanocortin receptor 4 by displacement of [125I]NDP-alpha-MSH from the human receptors expressed in CHO cells. The series is classed as cell-based.
T6 sequence (P56450 whole entry): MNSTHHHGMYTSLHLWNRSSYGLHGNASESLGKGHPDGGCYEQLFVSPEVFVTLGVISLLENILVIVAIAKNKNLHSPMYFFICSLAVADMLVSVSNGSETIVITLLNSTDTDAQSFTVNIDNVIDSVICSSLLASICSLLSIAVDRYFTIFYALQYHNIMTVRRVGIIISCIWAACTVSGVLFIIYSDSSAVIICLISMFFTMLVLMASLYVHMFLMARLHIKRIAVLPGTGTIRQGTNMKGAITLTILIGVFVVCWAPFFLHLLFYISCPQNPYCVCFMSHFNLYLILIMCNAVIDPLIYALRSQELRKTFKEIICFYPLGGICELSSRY
Series [18] concerns the target T1, Melanocortin receptor 3. Description: Percentage of cAMP accumulation at 10 uM compound relative to alpha-MSH in hMC3R. The format is functional.
The nature of series [19]: Volume of distribution in rhesus as a solution in water at 0.5 mg/kg, iv and 2 mg/kg po. The format is ADME, organism-based. The following applies: cercopithecidae, in vivo, read-out: Vdss.
In series [20] the target is T5, Melanocortin receptor 4. Nature of the series: Inhibition concentration (binding affinity) against rat melanocortin receptor 4 by displacement of [125I]NDP-alpha-MSH from the human receptors expressed in CHO cells. The series is classed as cell-based.
A short description of series [21]: Half life in beagles as a solution in water at 0.5 mg/kg, iv and 2.0 mg/kg, po. The settings on record: beagle, dog, in vivo. The series is classed as ADME, organism-based, Canis lupus familiaris.
Series [22] can be described thus: Clearance in Sprague Dawley rats as a solution in water at 1 mg/kg, iv and 20 mg/kg, po. The following applies: rat, in vivo. The format is ADME, organism-based.
Series [23] is described as follows: Bioavailability in beagles as a solution in water at 0.5 mg/kg, iv and 2.0 mg/kg, po. The format is ADME, organism-based, Canis lupus familiaris. The settings on record: beagle, dog, in vivo.
Series [24] is described as follows: Half life in rhesus as a solution in water at 0.5 mg/kg, iv and 2 mg/kg po. The series is classed as ADME, organism-based. The following applies: cercopithecidae, in vivo.
Series [25] is described as follows: Bioavailability in rhesus as a solution in water at 0.5 mg/kg, iv and 2 mg/kg po. The settings on record: rhesus monkey, in vivo. The series is classed as ADME, organism-based, Macaca mulatta.
A short description of series [26]: Volume of distribution in beagles as a solution in water at 0.5 mg/kg, iv and 2.0 mg/kg, po. The settings on record: beagle, dog, in vivo, read-out: Vdss. The format is ADME, organism-based, Canis lupus familiaris.
In series [27] the target is Melanocyte-stimulating hormone receptor (Homo sapiens, UniProt Q01726). Description: Inhibition concentration (binding affinity) against human melanocortin receptor 1 by displacement of [125I]NDP-alpha-MSH from the human receptors expressed in CHO cells. The format is cell-based.
Chain of Melanocyte-stimulating hormone receptor (Q01726 whole entry): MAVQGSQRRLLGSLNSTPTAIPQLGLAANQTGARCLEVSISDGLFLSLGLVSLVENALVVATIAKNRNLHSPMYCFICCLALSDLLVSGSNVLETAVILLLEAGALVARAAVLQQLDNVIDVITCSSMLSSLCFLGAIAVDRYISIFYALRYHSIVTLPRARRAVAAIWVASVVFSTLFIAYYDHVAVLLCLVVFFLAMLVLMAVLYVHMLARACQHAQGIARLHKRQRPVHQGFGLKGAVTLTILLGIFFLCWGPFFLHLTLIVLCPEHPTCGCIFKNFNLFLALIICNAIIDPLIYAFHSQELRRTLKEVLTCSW
The nature of series [28]: […] in rhesus as a solution in water at 0.5 mg/kg, iv and 2 mg/kg po. The format is organism-based. The following applies: cercopithecidae, in vivo.
Series [29] has as its target T4, Adrenocorticotropic hormone receptor. Description: Inhibition concentration (binding affinity) against human melanocortin receptor 2 by displacement of [125I]NDP-alpha-MSH from the human receptors expressed in CHO cells. The format is cell-based.
In series [30] the target is T6, Melanocortin receptor 4. Nature of the series: Concentration of compound at 50% maximum cAMP accumulation in mouse melanocortin receptor (mMC4R). The series is classed as functional.
Series [31] is described as follows: Cmax value in Sprague Dawley rats as a solution in water at 1 mg/kg, iv and 20 mg/kg, po. The series is classed as ADME, organism-based. The settings on record: rat, in vivo.
Series [32] in a line: Clearance in beagles as a solution in water at 0.5 mg/kg, iv and 2.0 mg/kg, po. The format is ADME, organism-based, Canis lupus familiaris. The settings on record: beagle, dog, in vivo.
Series [33] in a line: Half life in Sprague Dawley rats as a solution in water at 1 mg/kg, iv and 20 mg/kg, po. The series is classed as ADME, organism-based. The settings on record: rat, in vivo.
Series [34] is described as follows: […] in Sprague Dawley rats as a solution in water at 1 mg/kg, iv and 20 mg/kg, po. The series is classed as organism-based. The settings on record: rat, in vivo.
The target in series [35] is T2, Melanocortin receptor 5. Description: Inhibition concentration (binding affinity) exhibited against human melanocortin receptor 5 by radio labeled ligand assay (Displacement of [125I]NDP-alpha-MSH from the human receptors expressed in CHO cells). The series is classed as functional, cell-based.
Series [36] addresses T3, Melanocortin receptor 4. Description: Effective concentration (binding affinity) exhibited against human melanocortin receptor 4 by radio labeled ligand assay (Displacement of [125I]NDP-alpha-MSH from the human receptors expressed in CHO cells). The format is functional, cell-based.

T1 sequence (P41968 whole entry): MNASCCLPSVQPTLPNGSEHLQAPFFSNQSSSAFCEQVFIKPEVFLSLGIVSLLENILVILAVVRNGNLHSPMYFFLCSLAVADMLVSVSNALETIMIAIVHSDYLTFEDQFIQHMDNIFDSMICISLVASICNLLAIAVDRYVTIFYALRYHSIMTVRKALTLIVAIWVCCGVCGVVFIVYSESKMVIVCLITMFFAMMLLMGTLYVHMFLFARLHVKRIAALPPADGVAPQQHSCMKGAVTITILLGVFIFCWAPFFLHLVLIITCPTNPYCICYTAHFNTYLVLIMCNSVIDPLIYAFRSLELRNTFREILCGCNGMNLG
T4 sequence (Q01718 whole entry): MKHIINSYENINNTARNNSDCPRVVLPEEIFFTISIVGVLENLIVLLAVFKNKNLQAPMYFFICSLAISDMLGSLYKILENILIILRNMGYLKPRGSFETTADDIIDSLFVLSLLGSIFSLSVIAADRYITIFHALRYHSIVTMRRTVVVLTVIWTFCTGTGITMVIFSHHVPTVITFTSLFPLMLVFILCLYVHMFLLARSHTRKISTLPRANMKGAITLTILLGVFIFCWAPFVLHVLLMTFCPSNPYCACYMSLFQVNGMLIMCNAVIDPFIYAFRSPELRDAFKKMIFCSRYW
T5 sequence (P70596 whole entry): as the sequence (P56450 whole entry) above, with Y21H, P36S, S199T, T239A, S329P, S330G counted along it

On to `CC(C)(C)NC(=O)C1(C2CCCCC2)CCN(C(=O)[C@@H](Cc2ccc(F)cc2)NC(=O)[C@H]2C[C@@H]3CC[C@@H]2NC3)CC1`, for which the pMax at Melanocortin receptor 3 [1] worked out at 3%. Also, the IC50 was 1020 nM on Melanocortin receptor 5 [2], 14 nM on Melanocortin receptor 4 [4] and 620 nM at Melanocortin receptor 3 [6]. Besides, the Max on Melanocortin receptor 5 [3] is 3%. The compound also showed an EC50 at Melanocortin receptor 4 [5] of 52 nM.
For the compound `CN1C[C@@H]2CC[C@H]1[C@@H](C(=O)N[C@H](Cc1ccc(F)cc1)C(=O)N1CCC(C(=O)NC(C)(C)C)(C3CCCCC3)CC1)C2`, the Max at Melanocortin receptor 3 [1] worked out at 4%; at Melanocortin receptor 5 [3], 5%. The 50% inhibitory concentration (IC50) on Melanocortin receptor 5 [2] was 1080 nM; on Melanocortin receptor 4 [4], 6 nM; on Melanocortin receptor 3 [6], 410 nM. This compound also came in with an EC50 at Melanocortin receptor 4 [5] of 34 nM.
With `CN1C[C@H]2CC[C@@H]1[C@H](C(=O)N[C@H](Cc1ccc(F)cc1)C(=O)N1CCC(C(=O)NC(C)(C)C)(C3CCCCC3)CC1)C2`, the Cmax in series [7] came to 850 nM; in series [10], 910 nM; in series [31], 870 nM. Besides, the results for the Activation (in [8]; on Melanocortin receptor 3 [18]) were 2% and 8%, respectively. In addition, the EC50 stood at 5000 nM on Melanocortin receptor 4 [9], 850 nM on Melanocortin receptor 5 [13], 11000 nM at Melanocortin receptor 4 [16] and 6000 nM on Melanocortin receptor 4 [30]. Further, the Vd in series [11] was 9.6 L/kg; in series [19] it was 0.8 L/kg; in series [26], 2.3 L/kg. The Max turned out to be 8% at Melanocortin receptor 3 [1] and 33% on Melanocortin receptor 5 [3]. For the same compound, the results for the bioavailability in series [12], in series [23] and in series [25] were 32%, 50% and 16%, respectively. The Tmax turned out to be 1.1 h in series [14], 1.3 h in series [28] and 3 h in series [34]. Further, the clearance in series [15] was 3.4 mL/min/kg; in series [22], 46.9 mL/min/kg; in series [32] it was 6.6 mL/min/kg. For the same compound, the IC50 on Melanocortin receptor 4 [17] is 3000 nM; at Melanocortin receptor 4 [20], 3000 nM; in [27] it was 750 nM; in series [29] it was more than 10000 nM. Besides, the figures for the half-life in series [21], in series [24] and in series [33] were 4.9 h, 4.6 h and 3.2 h, respectively.
Regarding `CC(C)(C)NC(=O)C1(C2CCCCC2)CCN(C(=O)[C@@H](Cc2ccc(F)cc2)NC(=O)[C@H]2C[C@H]3CC[C@@H]2NC3)CC1`, the EC50 at Melanocortin receptor 5 [35] is 1980 nM; at Melanocortin receptor 4 [5] it was 238 nM. Moreover, the Max on Melanocortin receptor 3 [1] was found to be 10%; on Melanocortin receptor 5 [3] it was 26%. Moreover, the IC50 at Melanocortin receptor 5 [2] is 9870 nM; on Melanocortin receptor 4 [4], 41 nM; on Melanocortin receptor 3 [6] it was 2060 nM.
With `CN1C[C@H]2CC[C@@H]1[C@@H](C(=O)N[C@H](Cc1ccc(F)cc1)C(=O)N1CCC(C(=O)NC(C)(C)C)(C3CCCCC3)CC1)C2`, the EC50 amounted to 850 nM on Melanocortin receptor 5 [35] and 165 nM on Melanocortin receptor 4 [36]. Further, the Max on Melanocortin receptor 3 [1] amounted to 5%; at Melanocortin receptor 5 [3] it was 14%. In addition, the IC50 stood at 6460 nM on Melanocortin receptor 5 [2], 28 nM at Melanocortin receptor 4 [4] and 1350 nM at Melanocortin receptor 3 [6].
For the compound `CC(C)(C)NC(=O)C1(C2CCCCC2)CCN(C(=O)[C@@H](Cc2ccc(F)cc2)NC(=O)C2CC3CCC2NC3)CC1` (single isomer, unassigned), the Max on Melanocortin receptor 3 [1] came to 4%; at Melanocortin receptor 5 [3], 11%. The concentration for half-maximal inhibition (IC50) at Melanocortin receptor 5 [2] is 940 nM; on Melanocortin receptor 4 [4], 16 nM; at Melanocortin receptor 3 [6], 620 nM. Also, on Melanocortin receptor 4 [5], a half-maximal effect (EC50) was put at 20 nM.

The term IC50 denotes the concentration at which inhibition is half-maximal. A word on the EC50: it is the concentration needed to bring the measured effect to its halfway point. High values mean a less potent agent, low ones a more potent agent. A word on the Cmax: it is the peak of the concentration-time curve. As usually defined, the bioavailability is dose-corrected exposure relative to a reference, in per cent. For orientation: Tmax means the time at which the peak concentration occurs. The half-life is how long it takes for the measured level to halve. High values mean slow decline, low ones rapid decline.
